These are literature values, as cited in article PMC8583936, “Machine Learning Assisted Approach for Finding Novel High Activity Agonists of Human Ectopic Olfactory Receptors” (International Journal of Molecular Sciences, 2021).

In one data set the target is T1, OR1A1 (Homo sapiens, UniProt Q9P1Q5).
T1 sequence (Q9P1Q5 1-309): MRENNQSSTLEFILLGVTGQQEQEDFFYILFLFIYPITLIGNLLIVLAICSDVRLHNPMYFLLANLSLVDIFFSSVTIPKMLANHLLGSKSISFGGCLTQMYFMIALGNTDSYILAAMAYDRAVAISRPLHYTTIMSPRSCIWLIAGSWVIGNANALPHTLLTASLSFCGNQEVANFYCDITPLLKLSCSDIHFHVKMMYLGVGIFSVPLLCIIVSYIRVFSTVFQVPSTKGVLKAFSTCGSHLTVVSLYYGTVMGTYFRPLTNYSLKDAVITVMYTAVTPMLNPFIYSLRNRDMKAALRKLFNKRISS
The conditions noted are these: Table S1; ref Supplement references [1]-[9] as printed after each odorant name; cited from earlier work.
Regarding `C=CC(C)(O)CCC=C(C)CCC=C(C)C` (mixture of isomers) [Nerolidol], the “Class (agonist / non-agonist / conflicting info.) for OR1A1” value is listed as “Agonist”.

For `C=C(C)C1CC=C(C)[C@@H](O)C1` (single isomer, unassigned; (-)) [(-)-Carveol], the “Class (agonist / non-agonist / conflicting info.) for OR1A1” value was “Agonist”. `C=C(C)C1CC=C(C)C(OC(C)=O)C1` (single isomer, unassigned; (-)) [(-)Carvyl acetate mix]: the “Class (agonist / non-agonist / conflicting info.) for OR1A1” value is “Non-agonist”. Take `ClC=CCl` [1,2-dichlorethylene]: the “Class (agonist / non-agonist / conflicting info.) for OR1A1” value was “Non-agonist”. Take `CC(C)C12CCC(C)(CC1)O2` [1,4-cineole]: the “Class (agonist / non-agonist / conflicting info.) for OR1A1” value was “Non-agonist”. `OCCCCCCCCCO` [1,9 nonanediol]: the “Class (agonist / non-agonist / conflicting info.) for OR1A1” value was “Non-agonist”. Turning to `CCc1nccnc1CC` [2,3-diethyl pyrazine], the “Class (agonist / non-agonist / conflicting info.) for OR1A1” value is given as “Conflicting info”. For the molecule `Cc1cnc(C)cn1` [2,5 dimethyl pyrazine], the “Class (agonist / non-agonist / conflicting info.) for OR1A1” value is given as “Non-agonist”. In the case of `CCCCCCC(Br)C(=O)O` (stereo not shown) [2-bromo octanoic acid], the “Class (agonist / non-agonist / conflicting info.) for OR1A1” value is given as “Non-agonist”. On to `CCCC(Br)C(=O)O` (stereo not shown) [2-bromovaleric acid], for which the “Class (agonist / non-agonist / conflicting info.) for OR1A1” value is listed as “Non-agonist”. Take `CCc1ccccc1O` [2-ethylphenol]: the “Class (agonist / non-agonist / conflicting info.) for OR1A1” value is listed as “Agonist”. Regarding `COc1cnccn1` [2-methoxypyrazine], the “Class (agonist / non-agonist / conflicting info.) for OR1A1” value was “Non-agonist”. For `Cc1cnccn1` [2-methylpyrazine], the “Class (agonist / non-agonist / conflicting info.) for OR1A1” value is listed as “Non-agonist”. For `CCCCCCCCCCCCCC(C)=O` [2-pentadecanone], the “Class (agonist / non-agonist / conflicting info.) for OR1A1” value is “Non-agonist”. Take `CCCCCC=CCCC=O` [4-decenal]: the “Class (agonist / non-agonist / conflicting info.) for OR1A1” value is on record as “Agonist”. For `CCCCCCCC(=O)CCCCCCC` [8-pentadecanone], the “Class (agonist / non-agonist / conflicting info.) for OR1A1” value was “Non-agonist”.

In the case of `CC1(C)[C@H]2CC=C(C=O)[C@@H]1C2` [(R)-(-)-myrtenal], the “Class (agonist / non-agonist / conflicting info.) for OR1A1” value is recorded as “Non-agonist”. In the case of `O=C(O)CCCCC(=O)O` [Adipic acid], the “Class (agonist / non-agonist / conflicting info.) for OR1A1” value was “Non-agonist”. For `COc1ccccc1` [Anisole], the “Class (agonist / non-agonist / conflicting info.) for OR1A1” value is reported as “Non-agonist”. Turning to `CC(C)(C)c1ccc(CCC=O)cc1` [Bourgeonal], the “Class (agonist / non-agonist / conflicting info.) for OR1A1” value is “Conflicting info”. In the case of `CCC(Br)C(=O)O` (stereo not shown) [Bromobutyric acid], the “Class (agonist / non-agonist / conflicting info.) for OR1A1” value is “Non-agonist”.

On to `CCCCS` [Butane thiol], for which the “Class (agonist / non-agonist / conflicting info.) for OR1A1” value is given as “Non-agonist”. For `CC1C(C)(C)C2=C(C(=O)CCC2)C1(C)C` (stereo not shown) [Cashmeran], the “Class (agonist / non-agonist / conflicting info.) for OR1A1” value is reported as “Non-agonist”. With `CC(=O)c1cc(C(C)(C)C)cc2c1CCC2(C)C` [Celestolide], the “Class (agonist / non-agonist / conflicting info.) for OR1A1” value is given as “Agonist”. As for `CC(C)=CCCC(C)CC(=O)O` (stereo not shown) [Citronellic acid], the “Class (agonist / non-agonist / conflicting info.) for OR1A1” value was “Non-agonist”.

Consider `CC1C/C=C/CCCCCCCCC(=O)C1` (stereo not shown) [Cosmone], for which the “Class (agonist / non-agonist / conflicting info.) for OR1A1” value is “Agonist”. Turning to `O=C1CCCCCCCCC1` [Cyclodecanone], the “Class (agonist / non-agonist / conflicting info.) for OR1A1” value is recorded as “Non-agonist”. On to `C1CCCCCCCCCCCCCC1` [Cyclopentadecane], for which the “Class (agonist / non-agonist / conflicting info.) for OR1A1” value is reported as “Non-agonist”. `OC1CCCCCCCCCCCCCC1` [Cyclopentadecanol]: the “Class (agonist / non-agonist / conflicting info.) for OR1A1” value is on record as “Non-agonist”. Consider `O=C1CCCCCCCCCC1` [Cycloundecanone], for which the “Class (agonist / non-agonist / conflicting info.) for OR1A1” value is reported as “Non-agonist”. On to `CCCCCCC/C=C/C=C/C=O` [E,E-2,4-dodecadienal], for which the “Class (agonist / non-agonist / conflicting info.) for OR1A1” value was “Non-agonist”.

Take `CC/C=C/CC/C=C/C=O` [E,E-26-nonadienal]: the “Class (agonist / non-agonist / conflicting info.) for OR1A1” value is “Non-agonist”. For the molecule `CCCCC/C=C/CCC=O` [E-4-decanal], the “Class (agonist / non-agonist / conflicting info.) for OR1A1” value is “Agonist”. Regarding `O=C1CCCCCCCCCCCCCCO1` [Exaltolide], the “Class (agonist / non-agonist / conflicting info.) for OR1A1” value is given as “Non-agonist”. As to `CC(C)=CCC/C(C)=C/CC/C(C)=C/CO` [Farnesol], the “Class (agonist / non-agonist / conflicting info.) for OR1A1” value was “Non-agonist”.

Turning to `CC1COCc2cc3c(cc21)C(C)(C)C(C)C3(C)C` (stereo not shown) [Galaxolide], the “Class (agonist / non-agonist / conflicting info.) for OR1A1” value was “Non-agonist”.

As for `O=C1CCCCCC/C=C\CCCCCCC1` [Globanone], the “Class (agonist / non-agonist / conflicting info.) for OR1A1” value is listed as “Non-agonist”. Consider `O=C1CCCCCCCCC/C=C/CCCO1` [Habanolide], for which the “Class (agonist / non-agonist / conflicting info.) for OR1A1” value was “Non-agonist”. As to `CCC(=O)OCC(C)(C)OC(C)C1CCCC(C)(C)C1` (stereo not shown) [Helvetolide], the “Class (agonist / non-agonist / conflicting info.) for OR1A1” value was “Non-agonist”.

`CCCCCCCC(=O)OCCC(C)C` [Isoamyl octanoate]: the “Class (agonist / non-agonist / conflicting info.) for OR1A1” value was “Non-agonist”. Regarding `CC(C)CS` [Isobutyl mercaptan], the “Class (agonist / non-agonist / conflicting info.) for OR1A1” value is given as “Non-agonist”.

As for `CCCCCCCC(=O)OC` [Methyl octanoate], the “Class (agonist / non-agonist / conflicting info.) for OR1A1” value is “Non-agonist”. Consider `CCCC(C)C=O` (stereo not shown) [Methyl pentanal], for which the “Class (agonist / non-agonist / conflicting info.) for OR1A1” value is on record as “Non-agonist”. With `C[C@@H]1CCCCCCCCCCCCC(=O)C1` [Muscone], the “Class (agonist / non-agonist / conflicting info.) for OR1A1” value is listed as “Conflicting info”. On to `CC(C)=CCC/C(C)=C\CO` [Nerol], for which the “Class (agonist / non-agonist / conflicting info.) for OR1A1” value is recorded as “Agonist”. Take `CC(=O)OC/C=C(/C)CCC=C(C)C` [Nerylacetate]: the “Class (agonist / non-agonist / conflicting info.) for OR1A1” value is “Non-agonist”.

In the case of `CCCCCCCCC=O` [Nonanal], the “Class (agonist / non-agonist / conflicting info.) for OR1A1” value was “Conflicting info”. `CCCCCCCC(=O)OCCc1ccccc1` [Phenethyl octanoate]: the “Class (agonist / non-agonist / conflicting info.) for OR1A1” value is on record as “Non-agonist”. Consider `c1cnccn1` [Pyrazine], for which the “Class (agonist / non-agonist / conflicting info.) for OR1A1” value is on record as “Conflicting info”.

With `C1CCNC1` [Pyrrolidine], the “Class (agonist / non-agonist / conflicting info.) for OR1A1” value was “Non-agonist”. `O=C(O)CCC(=O)O` [Succinic acid]: the “Class (agonist / non-agonist / conflicting info.) for OR1A1” value was “Non-agonist”.

Regarding `C=CC(=C)CC/C=C(\C)CCC=C(C)C` [Trans-beta-farnesene], the “Class (agonist / non-agonist / conflicting info.) for OR1A1” value was “Non-agonist”. Consider `CCCCCCCCCCC=O` [Undecanal], for which the “Class (agonist / non-agonist / conflicting info.) for OR1A1” value is listed as “Non-agonist”. `CC/C=C\CCCCCC=O` [Z-7-decanal]: the “Class (agonist / non-agonist / conflicting info.) for OR1A1” value is listed as “Agonist”.

For the molecule Ambrettolide, the “Class (agonist / non-agonist / conflicting info.) for OR1A1” value is recorded as “Non-agonist”. For the molecule Farnesene, the “Class (agonist / non-agonist / conflicting info.) for OR1A1” value was “Non-agonist”.

Staying with this data set, now noted: cited from earlier work.
Turning to `C=CC(O)CCCCC` (stereo not shown) [1-octen-3-ol], the “Class (agonist / non-agonist / conflicting info.) for OR1A1” value was “Non-agonist”. `Cc1nccnc1C` [2,3-dimethylpyrazine]: the “Class (agonist / non-agonist / conflicting info.) for OR1A1” value is on record as “Non-agonist”.

With `CCCCC(Br)C(=O)O` (stereo not shown) [2-bromohexanoic acid], the “Class (agonist / non-agonist / conflicting info.) for OR1A1” value is “Non-agonist”.

Consider `CCc1cnccn1` [2-ethylpyrazine], for which the “Class (agonist / non-agonist / conflicting info.) for OR1A1” value is on record as “Non-agonist”. For `COc1ccc(C)cc1` [4-methylanisole], the “Class (agonist / non-agonist / conflicting info.) for OR1A1” value is “Non-agonist”.

Consider `CC(C)=CCC[C@@H](C)CCO` [(R)-(+)-citronellol], for which the “Class (agonist / non-agonist / conflicting info.) for OR1A1” value is given as “Agonist”. Regarding `COC(OC)c1ccccc1` [Benzaldehyde dimethyl acetal], the “Class (agonist / non-agonist / conflicting info.) for OR1A1” value is listed as “Non-agonist”. Take `CC(C)=CCCC(C)=CC#N` [Citralva]: the “Class (agonist / non-agonist / conflicting info.) for OR1A1” value is “Non-agonist”.

As for `O=C1CCCCCCCCCCCCCC1` [Cyclopentadecanone], the “Class (agonist / non-agonist / conflicting info.) for OR1A1” value is “Non-agonist”. With `c1ccc2[nH]ccc2c1` [Indole], the “Class (agonist / non-agonist / conflicting info.) for OR1A1” value is reported as “Non-agonist”.

With `C/C=C/c1ccc(OC)c(OC)c1` [Methyl isoeugenol], the “Class (agonist / non-agonist / conflicting info.) for OR1A1” value is given as “Agonist”. Consider `CCC(=O)OC` [Methyl propionate], for which the “Class (agonist / non-agonist / conflicting info.) for OR1A1” value was “Non-agonist”. In the case of `CC(=O)c1c(C)c([N+](=O)[O-])c(C(C)(C)C)c([N+](=O)[O-])c1C` [Musk ketone], the “Class (agonist / non-agonist / conflicting info.) for OR1A1” value was “Non-agonist”. For `CC(C)=CCC/C(C)=C\COC(=O)C(C)C` [Neryl isobutyrate], the “Class (agonist / non-agonist / conflicting info.) for OR1A1” value was “Non-agonist”. For `Oc1ccccc1` [Phenol], the “Class (agonist / non-agonist / conflicting info.) for OR1A1” value is given as “Non-agonist”. Take `CCC(=O)c1ccccc1` [Propiophenone]: the “Class (agonist / non-agonist / conflicting info.) for OR1A1” value was “Agonist”. Consider `CC(=O)CCc1ccc(O)cc1` [Raspberry ketone], for which the “Class (agonist / non-agonist / conflicting info.) for OR1A1” value is on record as “Non-agonist”. As to `Cc1ccc(C(C)C)c(O)c1` [Thymol], the “Class (agonist / non-agonist / conflicting info.) for OR1A1” value was “Conflicting info”. In the case of `CC(=O)c1cc2c(cc1C)C(C)(C)C(C)CC2(C)C` (stereo not shown) [Tonalide], the “Class (agonist / non-agonist / conflicting info.) for OR1A1” value is “Non-agonist”. With `O=C(O)/C=C(\CC(=O)O)C(=O)O` [Trans-Aconitic acid], the “Class (agonist / non-agonist / conflicting info.) for OR1A1” value is listed as “Non-agonist”. Take `CN(C)C` [Trimethylamine]: the “Class (agonist / non-agonist / conflicting info.) for OR1A1” value is recorded as “Non-agonist”. For the molecule (+)-Menthone, the “Class (agonist / non-agonist / conflicting info.) for OR1A1” value is reported as “Agonist”. For the molecule (S)-(-)-citronellal, the “Class (agonist / non-agonist / conflicting info.) for OR1A1” value is listed as “Agonist”.
